System: C57BL/6J mice
Experiment: Seizure threshold measurement in 6-Hz seizure test
Assay type: in vivo
Set-up: key to seizure incidence, Multiple dose-6 Hz / seizure incidence, Single dose-6 Hz: % of mice showing seizures
Details: for seizure incidence, Multiple dose-6 Hz / seizure incidence, Single dose-6 Hz: JX3212 10 mpk
Source text: Male C57BL/6J mice were subjected to corneal electroshock stimulation using a Grass S48 stimulator (Grass Technologies) with standardized parameters: frequency, 6 Hz; rectangular pulse width, 0.2 ms; and duration, 3 s. Seizure activity was operationally defined as the occurrence of any of the following behaviors: forelimb clonus, postictal immobility, facial myoclonus, staring behavior, orofacial automatization (chewing/unilateral pawing), or Straub tail posture. […] The seizure incidence was compared between the vehicle‐ and JX3212‐treated groups, with the CS50 threshold calculated as the minimal current intensity required to induce seizures in 50% of the subjects via probit analysis.

Compound: c1ccc2c(c1)oc1ccc(Nc3ccnc(NCCCN4CCOCC4)n3)cc12 [JX3212, N^4-(dibenzo[b,d]furan-2-yl)-N^2-(3-morpholinopropyl)pyrimidine-2,4-diamine]
- seizure susceptibility, 6-Hz seizure model (in words) (10 mg kg−1, single or 14-day consecutive administration): did not alter seizure susceptibility
- seizure incidence, Multiple dose-6 Hz (stimulus 18 mA): 25
- seizure incidence, Multiple dose-6 Hz (stimulus 20 mA): 50
- seizure incidence, Single dose-6 Hz (stimulus 20 mA): 22.22
- seizure incidence, Multiple dose-6 Hz (stimulus 22 mA): 75
- seizure incidence, Single dose-6 Hz (stimulus 22 mA): 50
- seizure incidence, Single dose-6 Hz (stimulus 24 mA): 57.14
- seizure incidence, Multiple dose-6 Hz (stimulus 26 mA): 87.5
- seizure incidence, Single dose-6 Hz (stimulus 26 mA): 85.71
